Patent US20070219245A1, “METHOD OF USE FOR SUBSTITUTED DIPIPERIDINE CCR2 ANTAGONISTS” (priority 2006, published 2007)

What was measured:
Type in all cases: in vivo
NON (NONcNZO10/LtJ) mice [1] = assay: Insulin sensitivity model: insulin tolerance test; conditions: NON mice
Protocol: (§1) In an insulin sensitivity model in mice, four month old male NON (NONcNZO10/LtJ) mice in four treatment groups (treated: 25 mg/kg, 50 mg/kg and 100 mg/kg and non-treated vehicle control) were fed LabDiet® 5K20 for 28 days. The treated groups were dosed (0.1 mL, ip, bid) with a test compound from Day 1 to Day 28. The non-treated group was dosed (0.1 mL, ip, q.d.) with vehicle from Day 1 to Day 28. Body weight and blood glucose were monitored once per week and an insulin tolerance test was performed by i.p. injection of […] insulin, then fed blood glucose levels were measured at 0, 15, 30, 60, 90, and 120 min after insulin administration. The insulin tolerance test blood glucose levels at the time points the sample were taken after insulin administration are shown in Table 5. Blood glucose levels were measured using a Glucometer. MCP-1 and insulin were measured by ELISA. Plasma glucose and FFA were measured using Weko kits. The statistical analysis for p value was performed using the program Prism (Graphpad, Monrovia, Calif.) with the Student t-test (unpaired). All data are presented as the mean ± standard error of the mean (SEM).

NON (NONcNZO10/LtJ) mice [2] = assay: Insulin sensitivity model: Day 28 blood samples and body weight; conditions: for Blood HbA1c / Body Weight / Plasma FFA / Plasma Glucose / Plasma Insulin / Plasma MCP-1: mean ± SEM
Protocol: as §1, with “5. After sacrifice on Day 28, blood samples were collected to measure HbA1c, plasma levels of glucose, plasma insulin, FFA (free fatty acids) and MCP-1.” for “5.”

DIO mice = assay: Diet induced obesity (DIO) model, treatment arm TA1 (high fat diet); conditions: for Body Weight Gain / Change in Fat Mass / Change in Lean Mass / Change in Water / Food Intake / Plasma MCP-1: TA1 DIO mice, high fat diet, mean ± SEM
Protocol: In a diet induced obesity (DIO) model in mice, two treatment arms of mice were tested. In the first treatment arm (TA1), DIO mice in four treatment groups (treated: 25 mg/kg, 50 mg/kg and 100 mg/kg and non-treated vehicle control) were fed a high fat diet. In the second treatment arm (TA2), lean mice in two treatment groups (treated: 100 mg/kg and non-treated vehicle control) were fed a regular chow diet. After 7 days acclimation to the diet, the treated groups in each arm were dosed (0.1 mL, ip, bid) with a test compound from Day 1 to Day 28 of the study. After 7 days acclimation to the diet, the non-treated groups in each arm were dosed (0.1 mL, ip, bid) with vehicle from Day 1 to Day 28 of the study. Body weight was monitored twice per week and on Day 28. After sacrifice, blood glucose, body weight, body mass, serum MCP-1 and insulin levels were also recorded. MCP-1 was measured by ELISA. The statistical analysis for p value was performed using the program Prism (Graphpad, Monrovia, Calif.) with the Student t-test (unpaired). All data are presented as the mean ± standard error of the mean (SEM).

O=C(O)[C@H](C1CCN(C(=O)/C=C/c2cc(F)c(F)c(F)c2)CC1)N1CCC(c2c[nH]c3ccccc23)CC1 [(S)-{[4-(1H-indol-3-yl)-piperidin-1-yl]}-{1-[(2E)-3-(3,4,5-trifluoro-phenyl)-acryloyl]-piperidin-4-yl}-acetic acid]
blood glucose control (NON (NONcNZO10/LtJ) mice [1]): improved | insulin sensitivity (NON (NONcNZO10/LtJ) mice [1]): increased | Blood HbA1c (NON (NONcNZO10/LtJ) mice [2]; Day 28, 25 mg/kg ip bid): 6.6 ± 0.5% | Body Weight (NON (NONcNZO10/LtJ) mice [2]; Day 28, 25 mg/kg ip bid): 45.2 ± 1.4 g | Plasma FFA (NON (NONcNZO10/LtJ) mice [2]; Day 28, 25 mg/kg ip bid): 1.2 ± 0.4 mM | Plasma Glucose (NON (NONcNZO10/LtJ) mice [2]; Day 28, 25 mg/kg ip bid): 413 ± 52 mg/dL | Plasma Insulin (NON (NONcNZO10/LtJ) mice [2]; Day 28, 25 mg/kg ip bid): 5.8 ± 0.7 ng/mL | Plasma MCP-1 (NON (NONcNZO10/LtJ) mice [2]; Day 28, 25 mg/kg ip bid): 56.6 ± 3.0 pg/mL | Blood HbA1c (NON (NONcNZO10/LtJ) mice [2]; Day 28, 50 mg/kg ip bid): 6.7 ± 0.7% | Body Weight (NON (NONcNZO10/LtJ) mice [2]; Day 28, 50 mg/kg ip bid): 42.6 ± 0.8 g | Plasma FFA (NON (NONcNZO10/LtJ) mice [2]; Day 28, 50 mg/kg ip bid): 1.0 ± 0.2 mM | Plasma Glucose (NON (NONcNZO10/LtJ) mice [2]; Day 28, 50 mg/kg ip bid): 358 ± 58 mg/dL | Plasma Insulin (NON (NONcNZO10/LtJ) mice [2]; Day 28, 50 mg/kg ip bid): 5.4 ± 0.9 ng/mL | Plasma MCP-1 (NON (NONcNZO10/LtJ) mice [2]; Day 28, 50 mg/kg ip bid): 177.4 ± 63.4 pg/mL | Blood HbA1c (NON (NONcNZO10/LtJ) mice [2]; Day 28, 100 mg/kg ip bid): 5.0 ± 0.2 % | Body Weight (NON (NONcNZO10/LtJ) mice [2]; Day 28, 100 mg/kg ip bid): 43.6 ± 0.9 g | Plasma FFA (NON (NONcNZO10/LtJ) mice [2]; Day 28, 100 mg/kg ip bid): 0.6 ± 0.1 mM | Plasma Glucose (NON (NONcNZO10/LtJ) mice [2]; Day 28, 100 mg/kg ip bid): 190 ± 15 mg/dL | Plasma Insulin (NON (NONcNZO10/LtJ) mice [2]; Day 28, 100 mg/kg ip bid): 7.9 ± 1.1 ng/mL | Plasma MCP-1 (NON (NONcNZO10/LtJ) mice [2]; Day 28, 100 mg/kg ip bid): 555.6 ± 104.5 pg/mL | HbA1c levels (NON (NONcNZO10/LtJ) mice [2]; NON mice): significantly reduced | body weight between treated and non-treated groups (NON (NONcNZO10/LtJ) mice [2]; NON mice): without a significant difference | body fat mass gain (DIO mice; DIO model in mice): significantly reduced | lean mass (DIO mice; DIO model in mice): no change | weight gain (DIO mice; DIO model in mice): significantly reduced | Body Weight Gain (DIO mice; 25 mg/kg ip bid Day 1-28): 3.8 ± 1.2 g | Change in Fat Mass (DIO mice; 25 mg/kg ip bid Day 1-28): 0.9 ± 0.7 g | Change in Lean Mass (DIO mice; 25 mg/kg ip bid Day 1-28): 3.1 ± 0.9 g | Change in Water (DIO mice; 25 mg/kg ip bid Day 1-28): 2.8 ± 0.8 g | Food Intake (DIO mice; 25 mg/kg ip bid Day 1-28): 14.0 ± 1.6 g/7 days | Plasma MCP-1 (DIO mice; 25 mg/kg ip bid Day 1-28): 69.2 ± 5.6 pg/mL | Body Weight Gain (DIO mice; 50 mg/kg ip bid Day 1-28): 3.4 ± 1.1 g | Change in Fat Mass (DIO mice; 50 mg/kg ip bid Day 1-28): 0.4 ± 0.6 g | Change in Lean Mass (DIO mice; 50 mg/kg ip bid Day 1-28): 4.9 ± 0.9 g | Change in Water (DIO mice; 50 mg/kg ip bid Day 1-28): 4.5 ± 0.8 g | Food Intake (DIO mice; 50 mg/kg ip bid Day 1-28): 13.5 ± 1.8 g/7 days | Plasma MCP-1 (DIO mice; 50 mg/kg ip bid Day 1-28): 98.3 ± 7.6 pg/mL | Body Weight Gain (DIO mice; 100 mg/kg ip bid Day 1-28): 2.3 ± 1.8 g | Change in Fat Mass (DIO mice; 100 mg/kg ip bid Day 1-28): 0.2 ± 0.3 g | Change in Lean Mass (DIO mice; 100 mg/kg ip bid Day 1-28): 3.4 ± 0.3 g | Change in Water (DIO mice; 100 mg/kg ip bid Day 1-28): 2.9 ± 0.3 g | Food Intake (DIO mice; 100 mg/kg ip bid Day 1-28): 14.5 ± 3.6 g/7 days | Plasma MCP-1 (DIO mice; 100 mg/kg ip bid Day 1-28): 503.5 ± 69.7 pg/mL
